# Counter-ions that a name gives are not always drawn.
# What was measured:
# [1] = system: Venturia inaequalis (Cke.) Wint.; test: whole plant or invertebrate; type: in vivo; details: for pest or weed control at 500 ppm / pest or weed control at 200 ppm: Venturia inaequalis, foliar, read-out: Apple Scab Percent Disease Control; for activity against apple scab: in vivo
# [2] = system: Podosphaera leucotricha (E&E) Salm.; test: whole plant or invertebrate; type: in vivo; details: for pest or weed control at 500 ppm: Podosphaera leucotricha, foliar, read-out: Apple Powdery Mildew Percent Disease Control; for activity against apple powdery mildew: in vivo
# [3] = system: Puccinia recondita var. tritici; test: Protectant control of leaf rust of wheat; type: in vivo
# Protocol: (§1) Individual pots of approximately 20 to 25 wheat (Triticum vulgare, cv. Cheyenne) plants each, grown under greenhouse conditions, approximately 7 to 8 days old and 10.2 to 12.7 cm. tall are used as test plants, a minimum of three such pots per unit of test.
# (§2) The required amount of test compound is dissolved in 10 ml. of a stock solution consisting of 1995 ml. acetone, 4 ml. sorbitan trioleate and 1 ml. polyoxyethylene (20) sorbitan monooleate and diluted to a volume of 100 ml. by addition of 90 ml. deionized water.
# (§3) Test plants, three pots per unit of test, are mounted on a compound turntable and sprayed to incipient run-off with the test solution applied at 2.81 kg/cm^2 pressure for 60 seconds using a solid conte T-Jet 8801E spray nozzle. By this spray procedure the delivery rate is equivalent to approximately 467.7 l/ha.
# (§4) Treated plants are allowed to air dry for 5 to 6 hours and then inoculated by uniformly dusting with urediospores of leaf rust of wheat (Puccinia recondita var. tritici) at a rate of approximately 2 × 10^5 urediospores per replicate, using urediospores directly from diseased plants. Inoculated plants are immediately placed in an incubation chamber maintained at 21° C. and 95% + RH. After 24 hours plants are removed to the greenhouse and maintained under greenhouse conditions of 21° to 29.4° C. and 50 to 75% RH for 5 to 8 days until signs of orange pustules visible to the naked eye appear on the inoculated but otherwise untreated controls.
# Effectiveness of the compound, as applied, is expressed as Percent Control calculated as: [formula]
# Average number of pustules on plants of any given test unit is determined by randomly dividing all plants in each of the three replicates (one pot per replicate) into quadrants, counting the actual number of pustules on all plants within a quadrant in each of the three replicates, multiplying by four and averaging the total number of pustules thus obtained as the average number of pustules per replicate.
# wheat = test: Plant injury to wheat in leaf rust test; type: in vivo, Triticum vulgare, cv. Cheyenne
# Protocol: as §1, §2, §3, §4
# [4] = Thermal decomposition point (Differential Thermal Analyzer); type: physicochemical; details: 20° C./min, onset method
# Protocol: By the procedure of Examples 2 and 5 the following novel salts of 2,3,5,6-tetrachloro-N-nitroaniline are prepared as listed in Table II below. The melting points (uncorrected) of said salts are determined on a Thomas Hoover Capillary Melting Point Apparatus; while the thermal decomposition points of said salts are determined on a Dupont 900 Differential Thermal Analyzer. […] Decompositions are recorded by an exothermic response and the temperatures given in Table II below are assessed by the "onset method".
# [5] = system: Pyricularia oryzae Carvara; details: in vivo
# rice = details: 1000 ppm
smiles,measurement,setting,value
O=[N+]([O-])Nc1ccccc1Cl,pest or weed control at 500 ppm,[1],93%
Cc1c(Cl)cccc1N[N+](=O)[O-],pest or weed control at 500 ppm,[2],84%
"O=[N+]([O-])Nc1c(Cl)c(Cl)cc(Cl)c1Cl [2,3,5,6-Tetrachloro-N-nitroaniline, 2,3,5,6-tetrachloro-N-nitroaniline]",% Control (Ave),[3]; 50 ppm,35%
same,No. of Infection Loci/Replicate,"[3]; 50 ppm, Rep. 1",186
same,No. of Infection Loci/Replicate,"[3]; 50 ppm, Rep. 2",173
same,No. of Infection Loci/Replicate,"[3]; 50 ppm, Rep. 3",199
same,% Control (Ave),[3]; 100 ppm,58%
same,No. of Infection Loci/Replicate,"[3]; 100 ppm, Rep. 1",124
same,No. of Infection Loci/Replicate,"[3]; 100 ppm, Rep. 2",119
same,No. of Infection Loci/Replicate,"[3]; 100 ppm, Rep. 3",116
same,% Control (Ave),[3]; 200 ppm,69%
same,No. of Infection Loci/Replicate,"[3]; 200 ppm, Rep. 1",81
same,No. of Infection Loci/Replicate,"[3]; 200 ppm, Rep. 2",96
same,No. of Infection Loci/Replicate,"[3]; 200 ppm, Rep. 3",86
same,Plant Injury (Ave),wheat; 50 ppm,0
same,Plant Injury (Ave),wheat; 100 ppm,0
same,Plant Injury (Ave),wheat; 200 ppm,0
same,Thermal Decomposition Point,[4]; listed as Parent Compound,150 °C
"O=[N+]([O-])Nc1c(Cl)c(Cl)cc(Cl)c1Cl [2,3,5,6-tetrachlorophenylnitramine N-barium salt]",activity against apple scab,[1],active
"O=[N+]([O-])Nc1cccc(Cl)c1Cl [2,3-dichlorophenylnitramine]",activity against apple scab,[1],active
same,activity against apple powdery mildew,[2],active
"Cc1cccc(N[N+](=O)[O-])c1C [2,3-dimethylphenylnitramine]",activity against the rice blast pathogen,[5],considerable activity
"O=[N+]([O-])Nc1ccc(Cl)cc1Cl [2,4-dichlorophenylnitramine]",activity against apple scab,[1],active
"O=[N+]([O-])Nc1c(Br)cc(C(F)(F)F)cc1Br [2,6-dibromo-4-trifluoromethylphenylnitramine]",activity against apple scab,[1],active
same,activity against apple powdery mildew,[2],active
"CC(=O)Nc1cc(Cl)c(N[N+](=O)[O-])c(Cl)c1 [2,6-dichloro-4-acetamidophenylnitramine]",activity against apple scab,[1],active
"O=[N+]([O-])Nc1c(Cl)cccc1Cl [2,6-dichloro-]",activity against apple powdery mildew,[2],active
"Cc1cc([N+](=O)[O-])cc(C)c1N[N+](=O)[O-] [2,6-dimethyl-4-nitro-]",activity against apple powdery mildew,[2],active
O=[N+]([O-])Nc1cccc(Br)c1 [3-bromophenylnitramine],activity against apple powdery mildew,[2],active
O=[N+]([O-])Nc1cccc(Cl)c1C(F)(F)F [3-chloro-2-trifluoromethyl-],activity against apple powdery mildew,[2],active
O=[N+]([O-])Nc1ccc(Cl)c(C(F)(F)F)c1 [4-chloro-3-trifluoromethyl-],activity against apple powdery mildew,[2],active
CS(=O)(=O)c1ccc(N[N+](=O)[O-])cc1 [4-methylsulfonylphenylnitramine],activity against apple scab,[1],active
O=[N+]([O-])Nc1ccc(C(F)(F)F)cc1 [4-trifluoromethylphenylnitramine],activity against the rice blast pathogen,[5],considerable activity
CC(C)N(c1c(Cl)c(Cl)cc(Cl)c1Cl)[N+](=O)[O-] [--(CH(CH3)2],activity against apple scab,[1],active
COC(=O)CN(c1c(Cl)c(Cl)cc(Cl)c1Cl)[N+](=O)[O-] [--CH2 COOCH3],activity against apple scab,[1],active
"CC(=O)N(c1c(Cl)c(Cl)cc(Cl)c1Cl)[N+](=O)[O-] [N-acetyl derivative of 2,3,5,6-tetrachlorophenylnitramine]",activity against the rice blast pathogen,[5],considerable activity
same,activity against apple powdery mildew,[2],active
O=[N+]([O-])Nc1c(Cl)c(Cl)cc(Cl)c1Cl [NH3 (CH2)8 CHCH(CH2)7 CH3],Thermal Decomposition Point,[4],157 °C
O=[N+]([O-])Nc1c(Cl)c(Cl)cc(Cl)c1Cl [NH3 C8 H17],Thermal Decomposition Point,[4],163 °C
O=[N+]([O-])Nc1c(Cl)c(Cl)cc(Cl)c1Cl [NH3 C12 H25 -n],Thermal Decomposition Point,[4],166 °C
O=[N+]([O-])Nc1c(Cl)c(Cl)cc(Cl)c1Cl [NH3 C16 H33],Thermal Decomposition Point,[4],148.5 °C
O=[N+]([O-])Nc1c(Cl)c(Cl)cc(Cl)c1Cl [NH3 CH2 CH2 NH2],Thermal Decomposition Point,[4],208 °C
"O=[N+]([O-])Nc1c(Cl)c(Cl)cc(Cl)c1Cl [NH3 CH2 CH2 OH, ethanolamine salt of 2,3,5,6-tetrachloro-N-nitroaniline]",Thermal Decomposition Point,[4],203 °C
O=[N+]([O-])Nc1c(Cl)c(Cl)cc(Cl)c1Cl [NH3 CH3],Thermal Decomposition Point,[4],183 °C
O=[N+]([O-])Nc1c(Cl)c(Cl)cc(Cl)c1Cl [NH4],Thermal Decomposition Point,[4],178 °C
O=[N+]([O-])Nc1c(Cl)c(Cl)cc(Cl)c1Cl [NH(C2 H5)3],Thermal Decomposition Point,[4],169 °C
O=[N+]([O-])Nc1c(Cl)c(Cl)cc(Cl)c1Cl [NH(C3 H7)3],Thermal Decomposition Point,[4],154 °C
O=[N+]([O-])Nc1c(Cl)c(Cl)cc(Cl)c1Cl [NH(CH2 CH2 OH)3],Thermal Decomposition Point,[4],150 °C
"O=[N+]([O-])Nc1c(Cl)c(Cl)cc(Cl)c1Cl [NH(CH3)2 . C6 H5, N,N-dimethylaniline salt of 2,3,5,6-tetrachloro-N-nitroaniline]",Thermal Decomposition Point,[4],128 °C
O=[N+]([O-])Nc1c(Cl)c(Cl)cc(Cl)c1Cl [NHC18 H37 . (CH2 CH2 O)2 H . (CH2 CH2 O)3 H],Thermal Decomposition Point,[4],153-157 °C
O=[N+]([O-])Nc1c(Cl)c(Cl)cc(Cl)c1Cl [drawing 21],Thermal Decomposition Point,[4],176 °C
O=[N+]([O-])Nc1c(Cl)c(Cl)cc(Cl)c1Cl [drawing 22],Thermal Decomposition Point,[4],143 °C
O=[N+]([O-])Nc1c(Cl)c(Cl)cc(Cl)c1Cl [drawing 23],Thermal Decomposition Point,[4],163 °C
O=[N+]([O-])Nc1c(Cl)c(Cl)cc(Cl)c1Cl [drawing 24],Thermal Decomposition Point,[4],138 °C
O=[N+]([O-])Nc1c(Cl)c(Cl)cc(Cl)c1Cl [drawing 25],Thermal Decomposition Point,[4],173 °C
O=[N+]([O-])Nc1c(Cl)c(Cl)cc(Cl)c1Cl [drawing 26],Thermal Decomposition Point,[4],203 °C
Cc1cccc(N[N+](=O)[O-])c1C [drawing 55],Rice Blast Percent Disease Control,[5],81%
CC(=O)N(c1c(Cl)c(Cl)cc(Cl)c1Cl)[N+](=O)[O-] [drawing 57],Rice Blast Percent Disease Control,[5],100%
O=[N+]([O-])Nc1c(Cl)c(Cl)cc(Cl)c1Cl [drawing 58],Rice Blast Percent Disease Control,[5],83%
same,phytotoxicity,rice,M/Sv
O=[N+]([O-])Nc1c(Cl)c(Cl)cc(Cl)c1Cl [drawing 59],Rice Blast Percent Disease Control,[5],83%
same,phytotoxicity,rice,M/Sv
O=[N+]([O-])Nc1c(Cl)c(Cl)cc(Cl)c1Cl [drawing 60],Rice Blast Percent Disease Control,[5],83%
O=[N+]([O-])Nc1c(Cl)c(Cl)cc(Cl)c1Cl [drawing 61],Rice Blast Percent Disease Control,[5],83%
O=[N+]([O-])Nc1c(Cl)c(Cl)cc(Cl)c1Cl [drawing 62],Rice Blast Percent Disease Control,[5],69%
O=[N+]([O-])Nc1cccc(Cl)c1Cl [drawing 64],pest or weed control at 200 ppm,[1],67%
same,pest or weed control at 500 ppm,[1],76%
CS(=O)(=O)c1ccc(N[N+](=O)[O-])cc1 [drawing 66],pest or weed control at 500 ppm,[1],76%
O=[N+]([O-])Nc1c(Br)cc(C(F)(F)F)cc1Br [drawing 67],pest or weed control at 500 ppm,[1],76%
CC(=O)Nc1cc(Cl)c(N[N+](=O)[O-])c(Cl)c1 [drawing 68],pest or weed control at 500 ppm,[1],76%
O=[N+]([O-])Nc1c(Cl)c(Cl)cc(Cl)c1Cl [drawing 69],pest or weed control at 500 ppm,[1],76%
COC(=O)CN(c1c(Cl)c(Cl)cc(Cl)c1Cl)[N+](=O)[O-] [drawing 73],pest or weed control at 200 ppm,[1],83%
same,pest or weed control at 500 ppm,[1],96%
O=[N+]([O-])Nc1cccc(Cl)c1Cl [drawing 74],pest or weed control at 500 ppm,[2],96%
O=[N+]([O-])Nc1c(Cl)cccc1Cl [drawing 75],pest or weed control at 500 ppm,[2],84%
O=[N+]([O-])Nc1cccc(Br)c1 [drawing 77],pest or weed control at 500 ppm,[2],84%
Cc1cc([N+](=O)[O-])cc(C)c1N[N+](=O)[O-] [drawing 78],pest or weed control at 500 ppm,[2],84%
O=[N+]([O-])Nc1c(Br)cc(C(F)(F)F)cc1Br [drawing 79],pest or weed control at 500 ppm,[2],84%
O=[N+]([O-])Nc1ccc(Cl)c(C(F)(F)F)c1 [drawing 80],pest or weed control at 500 ppm,[2],84%
CC(=O)N(c1c(Cl)c(Cl)cc(Cl)c1Cl)[N+](=O)[O-] [drawing 83],pest or weed control at 500 ppm,[2],92%

# Source: patent US4130645A (priority 1978, dated 1978)
